Entries after “also recorded” stand apart in the source; their conditions may differ. Where two headings read alike, the source gives them in different places.
Tests used:
[1] = system: MDA-MB-231 cells; assay: JC-1 mitochondrial membrane potential staining, MDA-MB-231; assay type: cell-based, human; conditions: HBB 20 μM 4 hours, (±)-14,15-EET 1 μM
Experimental: (§1) Cells were grown in chamber slides at 37° C. with 5% CO2 and treated with DMSO or HBB for 4 hours before JC-1 dye was added for the MCF-7 or MDA-MB-231 cell line. […] Images of red fluorescence (590 nm) and green fluorescence (530 nm) were acquired using an Olympus 1X70 microscope fitted with an Olympus DP70 digital camera (Olympus, Tokyo, Japan).

[2] = system: MCF-7 cells; assay: Western blot of signaling proteins, MCF-7; assay type: cell-based, human
Experimental: (§2) RIPA extracts of cells were prepared as described previously, in the presence of protease inhibitors and phosphatase inhibitors. Protein concentrations were determined by the micro-bicinchoninic acid (BCA) method, and 30 μg of protein was used for each lane of the SDS-polyacrylamide gel Western blot. Relative protein expression was estimated using GAPDH or β-actin as an internal standard.

[3] = system: MCF-7 cells; assay: RPPA analysis of MCF-7 cells treated with (±)-14,15-EET; assay type: cell-based, human; conditions: 15 minutes
From the text: It is proposed that HBB inhibition of ER+ tumor growth is due, in part, to direct inhibition of membrane associated non-mitochondrial CYP3A4, thereby suppressing Stat3 and mTOR signaling due to suppression of EET biosynthesis, resulting in AMPK activation (FIG. 6d, membrane diagram). […] In this model, EETs inhibit AMPK through unknown mechanisms. […] This model therefore proposes two sites of CYP3A4 activity, at cellular membranes and at mitochondria.

[4] = system: MDA-MB-231 cell line; assay: Western blot of AMPK phosphorylation, MDA-MB-231; assay type: cell-based, human; conditions: 1.0 μM, 24 hours
Experimental: as §2

[5] = system: MCF-7 cells; assay: JC-1 mitochondrial membrane potential staining, MCF-7; assay type: cell-based, human; conditions: HBB 20 μM 4 hours, (±)-14,15-EET 1 μM
Experimental: as §1

[6] = system: MCF-7; assay: MTT cell proliferation assay, MCF-7; assay type: cell-based; conditions: Homo sapiens, MCF7
Experimental: Cells were grown at 37° C. in a 5% CO2 incubator. […] MTT was then added (5 mg/ml), and after 2 h of incubation, the plates were centrifuged. The supernatant was removed; DMSO was added, and the absorbance was read at 540 nm with a BioTek 96-well plate reader.

[7] = system: MCF-7 cells; assay: Measurement of OCR and ECAR (extracellular flux), MCF-7; assay type: cell-based, human; conditions: t-AUCB 2.5, 5 μM, metformin 2.5, 5 mM, HBB 20, 40 μM, rotenone 1 μM
Experimental: Cells were maintained in growth medium consisting of 10% FBS at 37° C. with 5% CO2 and seeded at 100,000 cells per well in XF24-well cell culture microplates (Seahorse Bioscience, North Billirica, Mass.). Concentrated stocks of HBB were prepared in DMSO. HBB was diluted to 10× working concentration in XF assay medium (a non-buffered medium including 2 mM L-glutamine but no sodium bicarbonate (buffering agent), glucose, or sodium pyruvate). Assays were performed in the XF Extracellular Flux Analyzer (Seahorse Bioscience that measures uptake and excretion of metabolic end products in real time). Oxygen consumption rate (OCR) and extracellular acidification rate (ECAR) were measured using an XF Assay Kit. OCR is reported in pmoles/minute and ECAR in mpH/minute. Before analysis, the cells were switched from culture medium to XF assay medium. After baseline measurements, 75 μl of HBB prepared in assay medium was injected into each well to reach final working concentrations. After addition of HBB, OCR and ECAR were measured at 18-minute intervals. […] There were 6 replicates for the studies of the 3-18 and 4-14 cell lines.

[8] = target: T1, CYP2J2 (Homo sapiens, UniProt P51589); assay: CYP2J2 epoxygenase activity; conditions: 0.75, 1.5 or 3 mM
T1 sequence (P51589 1-502): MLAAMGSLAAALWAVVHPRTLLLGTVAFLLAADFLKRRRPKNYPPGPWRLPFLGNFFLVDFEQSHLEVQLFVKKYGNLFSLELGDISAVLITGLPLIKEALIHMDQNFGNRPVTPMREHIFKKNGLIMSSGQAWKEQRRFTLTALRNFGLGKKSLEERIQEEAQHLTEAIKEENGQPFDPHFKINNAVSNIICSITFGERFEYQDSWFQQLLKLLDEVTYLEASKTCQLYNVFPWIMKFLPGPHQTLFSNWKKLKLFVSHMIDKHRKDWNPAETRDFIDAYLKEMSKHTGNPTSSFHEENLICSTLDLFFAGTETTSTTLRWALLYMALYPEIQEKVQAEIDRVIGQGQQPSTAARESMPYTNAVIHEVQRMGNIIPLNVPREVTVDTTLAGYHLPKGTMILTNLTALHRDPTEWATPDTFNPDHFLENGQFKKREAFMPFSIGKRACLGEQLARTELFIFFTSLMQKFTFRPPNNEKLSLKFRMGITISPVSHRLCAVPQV

[9] = system: MCF-7 xenograft; conditions: 100-fold higher dosing than HBB (Ma et al.); cited from earlier work
[10] = system: cytochrome P450 reductase (CPR); assay: CPR-mediated reduction of cytochrome c; assay type: biochemical; conditions: 1 and 10 mM
Experimental: In a quartz cuvette, reduction of cytochrome c reaction was initiated by addition of CPR (final concentration 0.2 mg/mL) to 1 mL potassium phosphate buffer (0.3 M, pH=8.3) containing cytochrome c ([…]) and NADPH 50 ([…]). Absorbance at 550 nm was monitored real time by a Cary 50 UV-Vis Spectrophotometer (Agilent, Santa Clara, Calif.).

[11] = target: T1, CYP2J2; assay: Binding to CYP nanodiscs (CYP2J2)
[12] = system: MCF-7 cells; assay: Clonogenicity of MCF-7 cells; assay type: cell-based, human; conditions: 1 mM, 24 hours treatment, 2 weeks culture
Experimental: FIG. 9A. […] After 24 hours of culture, the medium was then removed followed by addition of CM to the plates (left panel). The plates were then cultured for 2 weeks and at the endpoint the cell colonies were stained with crystal violet and the colonies counted. […] FIG. 9B.

[13] = system: MCF-7 cells; assay: Cellular ATP by luminescent assay; assay type: cell-based, human; conditions: 6 hours of treatment; metformin 5 mM
Experimental: Cells were seeded in 96-well tissue culture plate in 100 μL medium per well. After treatment with either vehicle or testing compound for an appropriate length of time, 50 μL mammalian cell lysis solution was added to each well and the plate was shaken for 5 minutes on an orbital shaker. To each well, 50 μL luminescent substrate and luciferase solution were then added. After incubation in the dark for 10 minutes, the luminescence measured. Cellular ATP levels were then calculated against a standard curve generated with ATP standards of known concentration.

[14] = system: MCF-7 cells; assay: Cellular EET levels by LC-ESI/MS/MS; assay type: cell-based, human; conditions: metformin 5 mM, 6 hours
Experimental: Samples were submitted to liquid chromatography-electrospray ionization/multiple reaction monitoring/mass spectrometry (LC-ESI/MRM/MS) analysis in a Thermo Electron Quantum Discovery Max triple quadrupole mass spectrometer (Thermo Finnigan, San Jose, Calif.) coupled with an Agilent 1100 HPLC (Santa Clara, Calif.), using argon as the collision gas. Negative ion monitoring was performed at the following diagnostic product ions: 319 m/z→155 m/z for 8,9-EET; 319 m/z→179 m/z for 11,12-EET; 319 m/z→219 m/z for 14,15-EET; 339 m/z→163 m/z for 8,9-[13C20]EET; 339 m/z→233 m/z for 11,12-[13C20]EET; and 339 m/z→259 m/z for 14,15-[^13C20]EET. Base-line resolution of EET regioisomers was achieved on a Phenomenex Luna C18 (2) reverse phase capillary column (250×0.5 mm, 5-μm particles) using the following mobile phase combinations: isocratic 5% B for 5 min, gradient 5-70% B for 5 min, hold at 70% for 30 min and then 95% for 10 min; A: 0.01% acetic acid in water, B: 0.01% acetic acid in acetonitrile; […] flow rate. A standard curve was obtained by linear regression of the peak area ratio of authentic EET regioisomers against internal standards. The amount of EETs in samples was calculated according to the standard curve. The (±)-5,6-EET regioisomer was not measured because it undergoes rapid internal degradation. […]

[15] = target: T2, CYP2C8 (Homo sapiens, UniProt P10632); assay: Binding to CYP nanodiscs (CYP2C8)
T2 sequence (P10632 1-490): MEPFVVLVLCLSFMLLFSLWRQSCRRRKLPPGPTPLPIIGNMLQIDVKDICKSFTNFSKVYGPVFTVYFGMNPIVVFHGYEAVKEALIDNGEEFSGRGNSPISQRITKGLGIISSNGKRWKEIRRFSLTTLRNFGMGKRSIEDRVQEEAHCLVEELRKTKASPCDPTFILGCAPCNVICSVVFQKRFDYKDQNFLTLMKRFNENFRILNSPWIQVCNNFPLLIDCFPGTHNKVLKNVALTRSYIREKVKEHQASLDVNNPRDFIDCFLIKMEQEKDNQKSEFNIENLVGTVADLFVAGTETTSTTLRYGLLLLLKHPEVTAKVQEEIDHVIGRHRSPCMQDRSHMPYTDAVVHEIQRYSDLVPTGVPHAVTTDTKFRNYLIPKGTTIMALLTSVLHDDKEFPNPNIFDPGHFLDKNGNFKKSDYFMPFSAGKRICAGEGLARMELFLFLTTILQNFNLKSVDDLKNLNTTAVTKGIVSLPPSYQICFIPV

[16] = read-out: IC50, MCF-7 breast cancer cell line

## CCCCCC1OC1C/C=C\C/C=C\C/C=C\CCCC(=O)O (racemic) [(±)-14,15-EET, (±)-14,15-(5Z,8Z,11Z)-EET]
[1]
  mitochondrial membrane potential (ΔΨm), JC-1: increased mitochondrial membrane potential
[2]; 1 μM, 24 hours, MCF-7
  AMPK phosphorylation (pAMPK): suppression of pAMPKc
[3]
  Stat3 phosphorylation on Y705 and S727: activated
  total mTOR level: increased
[4]
  AMPK phosphorylation: no effect on AMPK phosphorylation
[5]
  mitochondrial membrane potential (ΔΨm), JC-1: increased mitochondrial cross membrane potential

## CCCCNC(=N)N=C(N)N [buformin, reference compound]
[6]; read-out: IC50 MCF-7
  IC50: > 10000 µM

## CCCCCCNC(=N)NC(=N)NCc1ncc[nH]1 [HIB, N1-hexyl-N5-[(1H-imidazol-2-yl)methyl]-biguanide]
[6]; [16]
  IC50: ~500 µM
[6]; read-out: IC50 MCF-7
  IC50: 500 µM

## CN(C)C(=N)N=C(N)N [metformin]
[7]
  extracellular acidification rate (ECAR): marginal
  oxygen consumption rate (OCR): marginal reduction of OCR
[8]
  inhibition of CYP2J2 epoxygenase activity: not inhibited
[9]
  activity on the MCF-7 xenograft: little activity
[10]
  CPR-mediated reduction of cytochrome c: not affected
[10]; listed as Metformin
  CPR-mediated reduction of cytochrome c: failed to inhibit
[6]; read-out: IC50 MCF-7
  IC50: 5000 µM
[11]
  binding to CYP2J2: binds
[2]; 1 mM, 48 hours
  CYP3A4 protein levels: did not affect; also recorded: did not change CYP3A4 protein levels
[2]; HBB 20 μM, metformin 5 mM
  onset of AMPK activation (phosphorylation): first detectable after 6 hours
[12]
  clonogenicity: Inhibits Clonogenicity
[13]
  total cellular ATP levels: unchanged; also recorded: failed to deplete cellular ATP
[14]
  cellular EET levels: reduced
[15]
  binding to CYP2C8: binds

## CCCCCCNC(=N)NC(=N)NCc1ccncc1 [HPB, N1-hexyl-N5-(pyridin-4-ylmethyl) biguanide]
[6]; [16]
  IC50: 40 µM
[6]; read-out: IC50 MCF-7
  IC50: 40 µM

## C=C(C)[C@H]1Cc2c(ccc3c2O[C@@H]2COc4cc(OC)c(OC)cc4[C@@H]2C3=O)O1 [rotenone]
[7]
  extracellular acidification rate (ECAR): Reduction of OCR and ECAR was highly significant
  oxygen consumption rate (OCR): Reduction of OCR and ECAR was highly significant

## N=C(N)/N=C(\N)NCCc1ccccc1 [phenformin, reference compound]
[6]; read-out: IC50 MCF-7
  IC50: 7000 µM
